Drawing on ChEMBL document CHEMBL1201862, “PubChem BioAssay data set” (2004), this text covers EC50 and AC50 for 29 compounds.

Calls of active or inactive are those of the source. Rule as the data show it, for most assays here: actives have a measured EC50 and inactives only a lower limit.

Experiment [1] deals with T1, Streptokinase A (Streptococcus pyogenes serotype M1, UniProt P10520).
T1 sequence (P10520 whole entry): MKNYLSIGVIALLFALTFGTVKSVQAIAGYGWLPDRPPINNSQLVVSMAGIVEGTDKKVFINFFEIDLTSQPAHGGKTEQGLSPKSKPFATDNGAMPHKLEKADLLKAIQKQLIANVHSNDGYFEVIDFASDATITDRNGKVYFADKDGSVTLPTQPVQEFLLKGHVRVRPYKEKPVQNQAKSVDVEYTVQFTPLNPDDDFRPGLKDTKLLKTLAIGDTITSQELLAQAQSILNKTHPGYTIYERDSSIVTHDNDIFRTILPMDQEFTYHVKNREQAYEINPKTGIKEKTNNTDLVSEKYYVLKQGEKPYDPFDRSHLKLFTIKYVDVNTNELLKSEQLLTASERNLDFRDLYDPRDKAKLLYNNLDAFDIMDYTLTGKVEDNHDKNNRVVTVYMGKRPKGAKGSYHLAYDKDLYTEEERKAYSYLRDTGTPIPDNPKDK
Briefly: viability-normalized secreted streptokinase activity reduction – plasminogen activation absorbance, OD405, dose response (AID 1914).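 Also: secreted streptokinase activity via plasminogen activation per viability signal from cell pellet.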 The class given is functional, Streptococcus pyogenes M1 GAS.

Experiment [2] has as its system Streptococcus sp. 'group A'. Briefly: Streptococcus pyogenes SK(-)GAS viability under kanamycin – luminescence, BacTiterGlo, confirmation, counter-screen for streptokinase expression inhibitor project, dose response (AID 1900). The class given is functional, organism-based. On the technique in general: A counterscreen serves to expose hits that act by an unwanted route or on another target.

For experiment [3], the system named is Streptococcus. Briefly: GAS UMAA2166 growth inhibition – luminescence, BacTiterGlo, counter-screen for streptokinase expression inhibitor project, dose response (AID 1915).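 Also: potency for reduction of bacterial viability or growth.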 The class given is functional, organism-based.
In experiment [4] the target is T2, Corticotropin-releasing factor receptor 2/Corticotropin-releasing factor-binding protein (Homo sapiens, UniProt P24387+Q13324).
T2 sequence (Q13324 whole entry): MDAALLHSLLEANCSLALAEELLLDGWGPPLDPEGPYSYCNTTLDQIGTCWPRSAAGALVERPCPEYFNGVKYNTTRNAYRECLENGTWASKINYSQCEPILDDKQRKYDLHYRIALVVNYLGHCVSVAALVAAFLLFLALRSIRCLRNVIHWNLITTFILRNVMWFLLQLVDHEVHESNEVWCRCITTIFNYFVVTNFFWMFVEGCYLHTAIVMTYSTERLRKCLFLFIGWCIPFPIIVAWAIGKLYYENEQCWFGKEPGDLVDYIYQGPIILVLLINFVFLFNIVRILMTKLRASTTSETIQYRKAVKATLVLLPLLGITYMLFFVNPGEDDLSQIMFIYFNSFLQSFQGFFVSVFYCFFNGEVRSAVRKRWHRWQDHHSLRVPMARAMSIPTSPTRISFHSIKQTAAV
T2 sequence (P24387 whole entry): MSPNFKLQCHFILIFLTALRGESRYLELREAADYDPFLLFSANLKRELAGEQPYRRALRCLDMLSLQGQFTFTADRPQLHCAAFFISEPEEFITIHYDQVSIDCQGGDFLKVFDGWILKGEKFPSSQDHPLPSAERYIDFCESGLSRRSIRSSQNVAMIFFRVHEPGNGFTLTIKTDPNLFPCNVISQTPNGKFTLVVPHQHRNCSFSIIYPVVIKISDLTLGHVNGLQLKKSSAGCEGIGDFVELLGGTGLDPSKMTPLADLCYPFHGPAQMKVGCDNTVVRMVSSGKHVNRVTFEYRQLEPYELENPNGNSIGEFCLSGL
Briefly: activators of CRF receptor 2 with binding protein – uHTS hits, confirmation (AID 602473). The class given is functional. To be noted: read-out: EC50_Mean.

Experiment [5] in a line: Luminescence Cell-Based Dose Confirmation HTS to Identify Activators of 5'UTR Stem-Loop Driven Alpha-Synuclein mRNA Translation in H4 Neuroglioblastoma Cells. [Related pubchem assays: 1829 (Project Summary), 1814 (Primary HTS)]. The class given is functional.
Experiment [6] in a line: Luminescence Cell-Based Dose Response HTS to Identify Activators of Luciferase Translation or Activity in H4 […] Cells. [Related pubchem assays: 1829 (Project Summary), 1814 (Primary HTS)]. The class given is functional.
Experiment [7] relates to H4. Briefly: Luminescence Cell-Based Dose Response HTS to Identify Activators of 5'UTR Stem-Loop Driven Prion Protein mRNA Translation in H4 Neuroglioblastoma Cells. [Related pubchem assays: 1829 (Project Summary), 1814 (Primary HTS)]. The class given is functional. To be noted: Homo sapiens.
Experiment [8] can be described thus: alpha-synuclein stem-loop luciferase translation blockers – H4 neuroglioma cells, luminescence, confirmation (AID 1988). The class given is functional, cell-based.
A short description of experiment [9]: Luminescence Cell-Based Dose Response HTS to Identify Inhibitors of 5'UTR Stem-Loop Driven Prion Protein mRNA Translation in H4 Neuroglioblastoma Cells. [Related pubchem assays: 1827 (Project Summary), 1813 (Primary HTS)]. The class given is functional.
The nature of experiment [10]: luciferase reporter signal suppression in cells – H4 neuroglioma cells, luminescence, dose response (AID 1990). The class given is functional, cell-based. For orientation: A reporter such as luciferase makes a cellular process visible.
Experiment [11] is described as follows: Trypanosoma cruzi growth suppression in host cells – NIH3T3 host cells, beta-gal luminescence, confirmation (AID 2044).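 Also: intracellular parasites grown in NIH/3T3 mouse fibroblasts as host cells; luminescent beta-galactosidase reporter signal from transgenic T. cruzi replicating inside host cells; inhibitors lower the luminescence signal.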 The class given is functional, cell-based.
The nature of experiment [12]: NIH3T3 cell viability loss – ATP luminescence, mouse fibroblasts, counter-screen, dose response (AID 2010).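 Also: cells exposed to compound for about 90 hours before reading.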 The class given is functional, cell-based.
The test system of experiment [13] is INS1. As to the kind of experiment: INS-1E survival protection against cytokine death – cell-based, luminescence, retest, dose response (AID 449756).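 Also: cell death triggered by IL-1 beta plus TNF-alpha plus IFN-gamma mixture; protective hits raise ATP signal compared with cytokine alone wells.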 The class given is functional. The following applies: Rattus norvegicus.
Experiment [14] addresses Cytochrome P450 3A4 (Homo sapiens, UniProt P08684).
The target of experiment [15] is Cytochrome P450 2C9 (Homo sapiens, UniProt P11712).
Experiment [16] deals with T3, Cytochrome P450 1A2 (Homo sapiens, UniProt P05177).
T3 sequence (P05177 whole entry): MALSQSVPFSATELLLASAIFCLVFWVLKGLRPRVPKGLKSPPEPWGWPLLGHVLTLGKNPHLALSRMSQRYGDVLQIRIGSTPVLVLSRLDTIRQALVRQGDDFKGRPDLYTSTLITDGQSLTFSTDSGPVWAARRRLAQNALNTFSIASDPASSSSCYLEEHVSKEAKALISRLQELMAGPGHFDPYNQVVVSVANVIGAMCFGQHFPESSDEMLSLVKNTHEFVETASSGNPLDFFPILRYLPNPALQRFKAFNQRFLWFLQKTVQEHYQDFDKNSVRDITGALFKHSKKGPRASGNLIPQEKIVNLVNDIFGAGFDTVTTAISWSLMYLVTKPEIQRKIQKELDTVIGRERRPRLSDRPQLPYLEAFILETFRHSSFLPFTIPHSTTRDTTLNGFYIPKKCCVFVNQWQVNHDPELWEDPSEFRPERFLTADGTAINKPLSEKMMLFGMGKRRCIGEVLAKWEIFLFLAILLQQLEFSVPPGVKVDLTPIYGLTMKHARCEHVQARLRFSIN

Cytochrome P450 2C9, sequence (P11712 whole entry): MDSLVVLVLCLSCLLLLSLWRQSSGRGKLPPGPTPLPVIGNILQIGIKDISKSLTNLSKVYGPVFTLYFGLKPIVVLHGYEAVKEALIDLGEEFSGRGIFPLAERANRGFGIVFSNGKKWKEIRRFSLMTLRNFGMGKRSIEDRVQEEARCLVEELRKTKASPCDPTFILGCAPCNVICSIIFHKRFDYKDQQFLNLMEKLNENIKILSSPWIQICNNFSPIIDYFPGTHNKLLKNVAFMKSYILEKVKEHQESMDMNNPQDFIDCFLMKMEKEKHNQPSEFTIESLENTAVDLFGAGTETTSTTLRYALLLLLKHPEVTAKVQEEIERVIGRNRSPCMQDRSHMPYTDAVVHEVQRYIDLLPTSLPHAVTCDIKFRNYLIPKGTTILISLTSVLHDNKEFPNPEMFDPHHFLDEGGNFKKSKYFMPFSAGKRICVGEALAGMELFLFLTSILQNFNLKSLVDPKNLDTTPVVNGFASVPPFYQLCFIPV
Cytochrome P450 3A4, sequence (P08684 whole entry): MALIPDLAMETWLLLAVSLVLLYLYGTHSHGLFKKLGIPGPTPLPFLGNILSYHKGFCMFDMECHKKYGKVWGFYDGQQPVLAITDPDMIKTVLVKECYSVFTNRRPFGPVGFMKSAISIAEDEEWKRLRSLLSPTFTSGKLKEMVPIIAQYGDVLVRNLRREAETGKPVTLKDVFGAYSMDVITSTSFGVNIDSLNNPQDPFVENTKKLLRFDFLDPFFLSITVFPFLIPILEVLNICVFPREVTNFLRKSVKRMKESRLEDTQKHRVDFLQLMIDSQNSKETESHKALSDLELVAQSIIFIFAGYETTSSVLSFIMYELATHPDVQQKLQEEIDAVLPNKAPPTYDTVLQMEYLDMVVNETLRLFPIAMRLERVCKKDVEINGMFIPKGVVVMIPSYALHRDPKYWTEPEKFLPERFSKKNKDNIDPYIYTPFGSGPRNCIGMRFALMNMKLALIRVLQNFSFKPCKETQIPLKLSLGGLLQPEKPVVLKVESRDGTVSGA

For the compound `O=C(Nc1nnc(C2=COCCO2)o1)c1ccc([N+](=O)[O-])s1`, the EC50 in experiment [1] is > 150 µM (not active); in experiment [2] it was 18.1 µM (active); in experiment [3] it was > 150 µM (not active).

`CCOc1ccc(NS(=O)(=O)c2ccc(C(=O)NCC3(N(C)C)CCCCC3)cc2)cc1`: the EC50 in [4] was 8.72 µM (active).

Take `Cc1sc2ncnc(Sc3nc4ccccc4s3)c2c1C`: the EC50 in experiment [5], in experiment [6] and in [7] was > 120 µM (not active) in each case.

`COc1ccc(-c2nc3c4c(ncn3n2)-c2ccccc2CC42CCCC2)cc1`: the EC50 in [8] was 14.7 µM (active); in experiment [9] it was > 120 µM (not active); in [10], 23 µM (active).

`CCOc1ccc(S(=O)(=O)N2CCCCC2)c2ccccc12`: the EC50 in [8] was > 120 µM (not active); in experiment [9] it was > 120 µM (not active); in [10], 20.9 µM (active).

Regarding `Cc1cc[n+](C(C)C(=O)c2ccc(-c3ccccc3)cc2)cc1` (configuration not stated), the EC50 in [11] was 3.33 µM (active); in [12] it was > 60 µM (not active). Further, the AC50 in experiment [13] is 4.05 µM (active).

Consider `COc1ccc(OC)c(NC(=O)Cn2cccc2)c1`, for which the AC50 is 15.8 µM (inconclusive) in experiment [14] and 31.6 µM (inconclusive) in [15].

Regarding `CC(=O)C(C(C)=O)c1cc(NS(=O)(=O)c2ccccc2)ccc1NS(=O)(=O)c1ccccc1`, the EC50 in experiment [4] was 9.35 µM (active).

Take `CN(C)C=O.COCCn1c(SCc2nc(O)c3c(C)c(C(=O)OC)sc3n2)nc2ccccc21`: the EC50 is > 150 µM (not active) in [1], 6.06 µM (active) in experiment [2] and 101 µM (active) in experiment [3]. In [16], the AC50 is 25.1 µM (inconclusive).

Consider `Cc1nnc(SCC(=O)NC(=O)Nc2ccc3c(c2)OCCO3)n1N`, for which the figures for the EC50 in experiment [5], in experiment [6] and in [7] were 11.9 µM (active), 32.8 µM (active) and > 120 µM (not active), respectively.

On to `O=C(Cn1cc(C(F)(F)F)cc(Cl)c1=O)NCc1ccccc1`, for which the EC50 is 84.7 µM (active) in experiment [5], 31.6 µM (active) in experiment [6] and 18.5 µM (active) in [7].

On to `O=c1c(-c2ccc(Cl)cc2)cnc2n1CCS2`, for which the figures for the EC50 in experiment [5], in experiment [6] and in experiment [7] were 13 µM (active), 11.3 µM (active) and 13.7 µM (active), respectively.

Regarding `CC1CN(CC(O)COC(c2ccc(Cl)cc2)c2ccc(Cl)cc2)CC(C)O1` (configuration not stated), the AC50 in experiment [13] is 11.9 µM (active).

On to `Brc1ccccc1C1=Nn2c(nnc2-c2ccccc2)SC1`, for which the results for the EC50 in experiment [8], in [9] and in experiment [10] were 38.4 µM (active), > 120 µM (not active) and 15.5 µM (active), respectively.

Consider `COC(=O)C1=CN(C2CCCCC2)C=C(C(=O)OC)C1c1ccc2c(c1)OCO2`, for which the EC50 in [8] was > 120 µM (not active); in experiment [11], 1.56 µM (active); in experiment [9] it was 57.5 µM (active); in [12] it was > 60 µM (inconclusive); in experiment [10], 15.8 µM (active).

For the compound `Cc1nn(-c2ccccc2)c2sc(C(=O)NC3CC3)cc12`, the EC50 in experiment [5] was > 120 µM (not active); in experiment [6] it was 48.3 µM (active); in [7] it was 27.9 µM (active).

In the case of `CCOC(=O)c1cc([N+](=O)[O-])sc1NC(=O)c1ccc(S(=O)(=O)N2CC3(C)CC2CC(C)(C)C3)cc1` (configuration not stated), in experiment [4], the EC50 is 0.793 µM (active).

Consider `O=C(Nc1cccnc1)c1ccc(CN2CCc3ccccc3C2)cc1`, for which the EC50 in experiment [5] is 50.3 µM (active); in experiment [6], 28.6 µM (active); in [7], > 120 µM (not active).

Take `CSc1ccc(S(=O)(=O)Nc2ccc(N3CCOCC3)c(Cl)c2)cc1`: in experiment [13], the AC50 was 29.8 µM (active).

Regarding `Clc1ccc(CSc2nccn2Cc2ccccc2)cc1`, the EC50 in [1] was 24.2 µM (inconclusive); in [2], 33 µM (active); in experiment [3] it was > 150 µM (not active). In experiment [15], the AC50 was 22.4 µM (inconclusive).

With `CC(Oc1ccc(C(=O)c2ccccc2)cc1)C(=O)Nc1ccc(S(N)(=O)=O)cc1` (configuration not stated), the EC50 in experiment [4] is 8.21 µM (active).

As for `Cc1ccc(Cn2nnc3c(=O)[nH]c(C4CCN(S(=O)(=O)c5cc(C)ccc5C)CC4)nc32)cc1`, the EC50 in [1] is 21.4 µM (active).

With `Clc1ccccc1Cn1nnc2c(N3CCOCC3)nc(C3CC3)nc21`, the EC50 in experiment [8] is 27 µM (active); in experiment [9] it was > 120 µM (not active); in experiment [10] it was 23.8 µM (active).

`NC1=C(c2nc3ccccc3[nH]2)C(=O)CN1c1ccccc1`: the EC50 in experiment [5] was > 120 µM (not active); in experiment [6], 79.8 µM (active); in experiment [7], 6.44 µM (active).

As for `CCOC(=O)CN1C(=O)C(Sc2n[nH]c(-c3ccc(C)cc3)n2)CCc2ccccc21` (configuration not stated), the values for the EC50 in experiment [8], in experiment [9] and in [10] were > 120 µM (not active), > 120 µM (not active) and 19.1 µM (active), respectively.

In the case of `COc1ccc(-c2cc3nc[nH]c(=O)c3s2)cc1`, the EC50 in experiment [1] is reported as > 150 µM (not active).

In the case of `COc1cc(/C=N/N=c2\[nH]c3ccccc3s2)cc([N+](=O)[O-])c1O`, the EC50 in experiment [1] was > 150 µM (not active).

With `C#CCOCCOCCOCCNc1nc(N2CCN(C(=O)CCCCCCCCCCNC(=O)[C@H](CCCCN)n3cc(C[C@@H](C)CC)nn3)CC2)nc(N2CCN(C(=O)CCCCCCCCCCNC(=O)[C@@H]([C@H](C)O)n3cc(C)nn3)CC2)n1`, the AC50 in experiment [13] was 4.74 µM (active).

With `CCOC(=O)/C(=N\Nc1ccc(Cl)cc1)c1csc(Nc2ccccc2)n1`, the EC50 in [1] is 20.9 µM (active); in experiment [11] it was 1.48 µM (active); in experiment [2], 6.05 µM (active); in [12], > 60 µM (not active); in experiment [3], 37 µM (active).

As a reminder, the AC50 is the midpoint of the concentration-response curve, whichever way the signal moves.
